From ChEMBL document CHEMBL1938315, “Tricyclic 3,4-dihydropyrimidine-2-thione derivatives as potent TRPA1 antagonists” (Bioorg Med Chem Lett, 2012)

Legend:
[1] = molecular target: T1, Transient receptor potential cation channel subfamily A member 1 (Homo sapiens, UniProt O75762); experiment: Antagonist activity at human TRPA1 expressed in HEK293 cells assessed as inhibition of 5H-dibenzo[b,e]azepine-10-carboxylic acid methyl ester-induced increase in intracellular calcium by Fluo4-AM based fluorometric assay; assay type: functional, cell-based
[2] = molecular target: T2, Transient receptor potential cation channel subfamily A member 1 (Rattus norvegicus, UniProt Q6RI86); experiment: Antagonist activity at rat TRPA1 expressed in HEK293 cells assessed as inhibition of BITC-induced increase in intracellular calcium concentration by Fluo4-AM based fluorometric assay; assay type: functional, cell-based
[3] = molecular target: T1, Transient receptor potential cation channel subfamily A member 1; experiment: Antagonist activity at human TRPA1 expressed in HEK293 cells assessed as inhibition of N-methyl-maleimide-induced current by patch clamp assay
[4] = molecular target: T2, Transient receptor potential cation channel subfamily A member 1; experiment: Antagonist activity at rat TRPA1 expressed in HEK293 cells assessed as inhibition of N-methyl-maleimide-induced current by patch clamp assay

T2 sequence (Q6RI86 whole entry): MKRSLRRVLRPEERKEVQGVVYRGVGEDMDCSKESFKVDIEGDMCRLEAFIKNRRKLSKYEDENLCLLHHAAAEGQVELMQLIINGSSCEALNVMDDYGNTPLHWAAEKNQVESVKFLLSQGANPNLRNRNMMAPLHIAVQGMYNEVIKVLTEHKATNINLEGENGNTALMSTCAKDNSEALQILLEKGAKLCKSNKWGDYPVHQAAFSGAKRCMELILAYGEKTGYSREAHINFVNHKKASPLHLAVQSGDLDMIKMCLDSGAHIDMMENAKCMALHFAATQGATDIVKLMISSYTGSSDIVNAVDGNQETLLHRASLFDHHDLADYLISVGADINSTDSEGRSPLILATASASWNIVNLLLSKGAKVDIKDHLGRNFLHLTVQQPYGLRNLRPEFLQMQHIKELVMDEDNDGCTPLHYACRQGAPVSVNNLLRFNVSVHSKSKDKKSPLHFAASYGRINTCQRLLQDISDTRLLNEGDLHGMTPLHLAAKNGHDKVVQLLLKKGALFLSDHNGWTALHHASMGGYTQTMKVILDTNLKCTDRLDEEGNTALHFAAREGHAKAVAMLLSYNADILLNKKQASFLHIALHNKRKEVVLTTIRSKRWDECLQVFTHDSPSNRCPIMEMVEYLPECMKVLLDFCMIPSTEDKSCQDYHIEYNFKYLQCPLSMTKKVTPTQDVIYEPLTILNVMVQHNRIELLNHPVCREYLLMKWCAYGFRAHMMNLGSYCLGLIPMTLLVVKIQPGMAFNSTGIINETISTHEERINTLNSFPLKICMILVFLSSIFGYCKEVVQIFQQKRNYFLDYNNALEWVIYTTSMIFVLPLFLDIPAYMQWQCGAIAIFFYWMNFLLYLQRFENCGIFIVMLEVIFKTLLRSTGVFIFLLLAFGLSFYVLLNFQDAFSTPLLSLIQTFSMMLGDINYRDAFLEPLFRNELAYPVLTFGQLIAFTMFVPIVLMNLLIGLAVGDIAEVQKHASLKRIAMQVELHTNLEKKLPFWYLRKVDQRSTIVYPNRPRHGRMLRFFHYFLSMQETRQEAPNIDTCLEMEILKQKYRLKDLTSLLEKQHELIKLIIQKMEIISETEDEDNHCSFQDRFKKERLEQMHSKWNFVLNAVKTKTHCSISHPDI
T1 sequence (O75762 whole entry): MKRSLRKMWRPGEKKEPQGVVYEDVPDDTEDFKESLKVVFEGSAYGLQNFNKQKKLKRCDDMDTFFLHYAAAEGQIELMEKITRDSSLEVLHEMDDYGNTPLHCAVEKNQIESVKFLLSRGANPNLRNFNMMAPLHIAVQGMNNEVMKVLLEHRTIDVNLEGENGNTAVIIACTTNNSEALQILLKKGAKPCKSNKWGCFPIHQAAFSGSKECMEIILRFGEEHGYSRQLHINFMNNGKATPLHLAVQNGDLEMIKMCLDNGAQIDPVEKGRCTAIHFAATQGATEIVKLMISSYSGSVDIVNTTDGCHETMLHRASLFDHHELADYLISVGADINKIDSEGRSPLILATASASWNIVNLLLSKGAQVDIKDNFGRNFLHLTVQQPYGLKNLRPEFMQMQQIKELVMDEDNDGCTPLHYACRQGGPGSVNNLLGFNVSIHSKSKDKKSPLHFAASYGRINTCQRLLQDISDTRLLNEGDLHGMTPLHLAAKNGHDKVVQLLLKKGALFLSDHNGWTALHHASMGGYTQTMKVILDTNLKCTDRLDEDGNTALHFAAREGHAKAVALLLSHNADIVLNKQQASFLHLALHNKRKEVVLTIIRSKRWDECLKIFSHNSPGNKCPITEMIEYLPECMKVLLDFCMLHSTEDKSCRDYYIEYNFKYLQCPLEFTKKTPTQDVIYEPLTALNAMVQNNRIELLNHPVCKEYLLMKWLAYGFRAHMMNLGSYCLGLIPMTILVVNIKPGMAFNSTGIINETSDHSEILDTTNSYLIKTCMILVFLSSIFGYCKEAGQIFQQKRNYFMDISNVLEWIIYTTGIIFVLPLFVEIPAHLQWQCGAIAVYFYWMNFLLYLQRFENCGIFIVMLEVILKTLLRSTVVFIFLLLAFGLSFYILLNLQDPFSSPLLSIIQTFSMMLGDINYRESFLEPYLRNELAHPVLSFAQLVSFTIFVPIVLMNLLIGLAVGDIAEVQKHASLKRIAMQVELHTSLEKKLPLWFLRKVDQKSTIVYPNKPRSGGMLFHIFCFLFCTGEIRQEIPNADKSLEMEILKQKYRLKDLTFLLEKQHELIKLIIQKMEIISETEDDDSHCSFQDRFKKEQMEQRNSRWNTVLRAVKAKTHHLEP

With `O=C1CCCC2=C1C(c1ccccc1)NC(S)=N2` (stereo unspecified) the IC50 [1] was > 10000 nM.
With `O=C1NC2=C(C(=O)c3ccccc32)C(c2ccccc2)N1` (stereo unspecified) the IC50 [1] was > 10000 nM and the IC50 [2] was > 10000 nM.
An IC50 [1] of 50 nM and an IC50 [2] of 11 nM were found for `COCCCOc1cccc(C2NC(=S)NC3=C2C(=O)c2ccccc23)c1` (racemic) in this work.
`COCCCOc1cccc([C@@H]2NC(=S)NC3=C2C(=O)c2ccccc23)c1` was tested, and the IC50 [2] was > 10000 nM.
With `O=C(O)c1cccc(C2NC(=S)NC3=C2C(=O)c2ccccc23)c1` (stereo unspecified) the IC50 [1] was > 10000 nM and the IC50 [2] was > 10000 nM.
For `SC1=NC(c2ccccc2)=CC(c2ccccc2)N1` (stereo unspecified), the IC50 [1] was > 10000 nM.
An IC50 [2] of 2700 nM was found for `COc1cccc(C2NC(=S)NC3=C2C(=O)c2ccccc23)c1OC` (stereo unspecified) in this work.
An IC50 [1] of 13 nM and an IC50 [2] of 4 nM were found for `COCCCOc1cccc([C@H]2NC(=S)NC3=C2C(=O)c2ccccc23)c1` in this work.
`S=C1NC2=C(CCC2)C(c2ccccc2)N1` (stereo unspecified) was tested, and the IC50 [1] was > 10000 nM.
An IC50 [1] of 1700 nM and an IC50 [2] of 500 nM were found for `COCCCOc1cccc(C2NC(=O)NC3=C2C(=O)c2ccccc23)c1` (racemic) in this work.
An IC50 [2] of 71 nM was found for `O=C1C2=C(NC(=S)NC2c2cccc(Br)c2)c2ccccc21` (stereo unspecified) in this work.
An IC50 [1] of 710 nM and an IC50 [2] of 44 nM were found for `O=C1C2=C(NC(=S)NC2c2cccc(CO)c2)c2ccccc21` (stereo unspecified) in this work.
An IC50 [1] of 130 nM and an IC50 [2] of 20 nM were found for `COc1cccc(C2NC(=S)NC3=C2C(=O)c2ccccc23)c1` (racemic) in this work.
An IC50 [1] of 210 nM and an IC50 [2] of 47 nM were found for `O=C1C2=C(NC(=S)NC2c2cccc(OCCO)c2)c2ccccc21` (stereo unspecified) in this work.
In the case of `COc1ccc(OC)c(C2NC(=S)NC3=C2C(=O)c2ccccc23)c1` (stereo unspecified), the IC50 [2] is reported as > 10000 nM.
With `S=C1NC2=C(CCCC2)C(c2ccccc2)N1` (stereo unspecified) the IC50 [1] was > 10000 nM.
For `SC1=NC2=C(CCC/C2=C\c2ccccc2)C(c2ccccc2)N1` (stereo unspecified), the IC50 [1] was > 10000 nM.
An IC50 [1] of 2070 nM and an IC50 [2] of 3390 nM were found for `O=C1C2=C(NC(=S)NC2c2ccccc2F)c2ccccc21` (stereo unspecified) in this work.
For `COc1ccccc1C1NC(=S)NC2=C1C(=O)c1ccccc12` (stereo unspecified), the IC50 [1] was > 10000 nM and the IC50 [2] was 9400 nM.
An IC50 [1] of 75 nM, an IC50 [2] of 12 nM and an EC50 [3] of 10 nM were found for `COc1cccc([C@H]2NC(=S)NC3=C2C(=O)c2ccccc23)c1` in this work. The EC50 [4] was 220 nM.
An IC50 [1] of 70 nM and an IC50 [2] of 10 nM were found for `O=C1C2=C(NC(=S)NC2c2cccc(OCCCCO)c2)c2ccccc21` (stereo unspecified) in this work.
An IC50 [2] of 980 nM was found for `COc1cccc(C2C3=C(NC(=S)N2C)c2ccccc2C3=O)c1` (racemic) in this work.
An IC50 [1] of 3900 nM and an IC50 [2] of 4700 nM were found for `COc1cccc(C2NC(=O)NC3=C2C(=O)c2ccccc23)c1` (racemic) in this work.
With `CN(C)CCCOc1cccc(C2NC(=S)NC3=C2C(=O)c2ccccc23)c1` (stereo unspecified) the IC50 [1] was > 10000 nM and the IC50 [2] was > 10000 nM.
An IC50 [1] of 770 nM and an IC50 [2] of 310 nM were found for `O=C1C2=C(NC(=S)N[C@@H]2c2ccccc2)c2ccccc21` in this work.
`CC(C)c1ccc(NC(=O)Cn2cnc3c2c(=O)n(C)c(=O)n3C)cc1` was tested, and the IC50 [1] was > 10000 nM and the IC50 [2] was 5600 nM.
With `CC1=C(C(=O)c2ccccc2)C(c2ccccc2)NC(=S)N1` (stereo unspecified) the IC50 [1] was > 10000 nM.
In the case of `S=C1NC2=C(CCc3ccccc32)C(c2ccccc2)N1` (stereo unspecified), the IC50 [1] is reported as > 10000 nM.
An IC50 [1] of 3100 nM and an IC50 [2] of 3500 nM were found for `COc1ccc(C2NC(=S)NC3=C2C(=O)c2ccccc23)cc1` (stereo unspecified) in this work.
An IC50 [1] of 1100 nM and an IC50 [2] of 390 nM were found for `O=C1C2=C(NC(=S)NC2c2cccc(F)c2)c2ccccc21` (stereo unspecified) in this work.
An IC50 [1] of 85 nM and an IC50 [2] of 3 nM were found for `COc1cccc(C2NC(=S)N(C)C3=C2C(=O)c2ccccc23)c1` (racemic) in this work.
In the case of `COc1cccc([C@@H]2NC(=S)NC3=C2C(=O)c2ccccc23)c1`, the IC50 [2] is reported as > 10000 nM and the EC50 [3] is reported as 12000 nM.
An IC50 [1] of 1500 nM and an IC50 [2] of 160 nM were found for `COc1ccc(Oc2cccc(C3NC(=S)NC4=C3C(=O)c3ccccc34)c2)cc1` (stereo unspecified) in this work.
An IC50 [1] of 2780 nM and an IC50 [2] of 800 nM were found for `COc1cc(OC)cc(C2NC(=S)NC3=C2C(=O)c2ccccc23)c1` (stereo unspecified) in this work.
An IC50 [1] of 310 nM and an IC50 [2] of 70 nM were found for `CCCCOc1cccc(C2NC(=S)NC3=C2C(=O)c2ccccc23)c1` (stereo unspecified) in this work.
`CCOC(=O)C1=C(c2ccccc2)NC(=S)NC1c1cccc(OC)c1` (stereo unspecified) was tested, and the IC50 [1] was > 10000 nM and the IC50 [2] was 9500 nM.
`CN(C)CCOc1cccc(C2NC(=S)NC3=C2C(=O)c2ccccc23)c1` (stereo unspecified) was tested, and the IC50 [1] was > 10000 nM and the IC50 [2] was 8900 nM.
An IC50 [1] of 640 nM and an IC50 [2] of 230 nM were found for `O=C1C2=C(NC(=S)NC2c2cccc(O)c2)c2ccccc21` (stereo unspecified) in this work.
In the case of `O=C1C2=C(NC(=S)N[C@H]2c2ccccc2)c2ccccc21`, the IC50 [1] is reported as 8100 nM and the IC50 [2] is reported as > 10000 nM.
An IC50 [1] of 1800 nM and an IC50 [2] of 1900 nM were found for `O=C1C2=C(NC(=S)NC2c2ccccc2)c2ccccc21` (racemic) in this work.
`S=C(NCc1ccccc1)NCc1ccccc1` was tested, and the IC50 [1] was > 10000 nM.
